We go through five compounds from PMC7719495 (BioMed Research International, 2020).

In data set [1] the test system is mice brain capillary endothelial cells (BCECs). The data set is described as follows: AMPB uptake by BCECs, HPLC. Type of data set: cell-based. The note with it: 30, 60, 120, 180 min, compared with AMPB group. As to the method:
The mice brain capillary endothelial cells (BCECs, cat. no. BNCC35187) were purchased from Beijing Beina Chuanglian Biotechnology Research Institute (Beijing, China). BCECs were resuscitated in a constant temperature water bath at 37°C and then inoculated in a petri dish. The cells were cultured with the 1640 medium containing 10% FBS in a 5% CO2 cell incubator at 37°C. The culture medium was changed every other day, and the cells were digested with 0.25% trypsin when they converged and proliferated to form a full layer at the bottom of the dish. 1 mL cell suspensions were seeded in 12-well plates at a density of 1 × 10^5 cells/mL per well. The drug was administered after the cells being completely adherent to the wall. 2.16 μM AMBP solution was prepared with the 1640 medium and then was used to prepare POS solution at concentrations of 2.85 μM, 5.71 μM, and 11.42 μM, 5 μM zosuquidar, 5 μM Ko143, 1 mM elacridar, and 40 g/L albumin solution, respectively.
The cells were randomly divided into the following 8 groups: 2.16 μM AMBP, 2.16 μM AMBP+POS (2.85 μM, 5.71 μM, and 11.42 μM), 2.16 μM AMBP+5 μM zosuquidar, 2.16 μM AMBP+5 μM Ko143, 2.16 μM AMBP+1 mM elacridar, and 2.16 μM AMBP+40 g/L albumin. Three wells were set at each time point in each group and cultured at 37°C. Cell samples were collected at 30 min, 60 min, 120 min, and 180 min after drug administration, respectively. BCECs were eluted with Hanks' balanced salt solution for 3 times and then incubated with 1% Triton X-100 (200 μL/per well) at 4°C for 12 h to lyse the cells.

The nature of data set [2]: HPLC analysis of the content of AMPB in mice plasma and brain tissue. Type of data set: in vivo, KM mice. The note with it: compared with AMPB group; AMPB 3 mg/kg iv q.d.; POS 90 mg/kg gavage, zosuquidar 20 mg/kg, Ko143 10 mg/kg, elacridar 2.5 mg/kg iv, b.i.d. 4 days; 4 h after last administration. The procedure:
POS, zosuquidar, Ko143, and elacridar were administered for 4 consecutive days (b.i.d., 9 a.m. and 9 p.m).
4 h after the last administration, the mouse eyeball was taken for blood sample acquisition, in a commercial 1.5 mL centrifuge tube containing the anticoagulant EDTA, with sterilized ophthalmic bending forceps. Samples were centrifuged at 3000 rpm for 10 min. And the bottom plasma was gently extracted and separated with micropipeter. Then, plasma proteins were precipitated by adding 300 μL methanol to 100 μL plasma, followed by vortex for 10 s and let it stand for 5 min. After that, the samples were centrifuged at 4°C, 13000 rpm, for 10 min. Finally, the plasma test solution was fulfilled by filtering it through the 0.22 μm microporous membrane.
After the completion of blood, the mice brain was quickly removed. Moderate brain tissue samples were mixed with physiological saline for homogenate preparation. And proteins were precipitated by adding 300 μL methanol to 100 μL homogenate, followed by vortex for 10 s, and let it stand for 5 min, and then centrifuged at 4°C, 13000 rpm, for 10 min. Finally, the brain test solution was fulfilled by filtering it through the 0.22 μm microporous membrane. […] The analytical column was a Diamonsil (2) C18 column (250 mm ×4.6 mm, 5 μm) maintained at 30°C. The mobile phase consisted of 10 mM ammonium acetate aqueous solution (PH4) and acetonitrile, with the flow rate of 1.0 mL/min and the injection volume of 50 μL.

In data set [3] the test system is Cryptococcus neoformans. In words: H&E staining of brain pathology in mice with cryptococcal meningitis. It counts as in vivo. The note with it: AMPB 3 mg/kg, POS 180 mg/kg, 14 days, compared with model group.
Protocol: Except the control group, the mice in the other four groups were all injected with the lateral ventricular cryptococcus suspension at the dose of 1 × 10^8 CFU/mL, 5 μL for each mouse [19]. And the control group was injected with the same volume of normal saline. […] After 5 days, mice in each group were administered with the corresponding drugs mentioned above, continuously for 14 days. […] The mice were then anesthetized with ether for 24 h after the last administration. Next, the brain tissue was promptly removed for H&E staining and colonization detection of Cryptococcus neoformans. The mouse brain tissue was fixed with 4% paraformaldehyde at 25°C for 24 h, followed by washing with running water for 0.5 h [20, 21]. The brain was then dehydrated with 75%, 85%, 95%, and anhydrous ethanol for 6 h, 10 h, 4 h, and 2 h, respectively. After permeabilization with xylene I for 20 min and xylene II for 15 min, the brain was embedded in paraffin for 3 h and then cut into 5 μm slices using a microtome (RM2235, Leica Biosystems, Wetzlar, Germany) and roasted at 60°C. After dewaxing with xylene, the slices were stained with hematoxylin and eosin. Random photographs of three fields were acquired using a CX22 light microscope at ×400 magnification (Olympus Corporation, Tokyo, Japan).
Data set [4] concerns plasma protein. The data set is described as follows: Ultrafiltration analysis of free AMPB in in vitro plasma. Type of data set: in vitro ADME. The note with it: 37°C, 2 h, p < 0.0001 vs AMPB group. As to the method: (§1) The equilibrium dialysis experiments were performed by the Thermo Fisher Scientific rapid equilibrium dialysis (RED) device. […] The prepared sample solutions were added into the holes of RED plate, respectively, with a 300 μL sample loading. In the corresponding buffer holes, 550 μL, 1% Triton X-100 solution was added. After the sample loading was completed, the sample was put into a 37°C constant temperature oscillator, and the dialysis was balanced at 100 rpm for 6 h. […] And then, the protein or drug-protein complexes with a molecular weight ≥ […] were retained by adding 1 mL of drug-containing plasma mixture into the Centrifree® overfiltration unit and centrifuging it at 13000 rpm and 4°C for 20 min.

In data set [5] the test system is plasma protein. The data set is described as follows: Balanced (equilibrium) dialysis of free AMPB in in vitro plasma. It counts as in vitro ADME, mouse. The note with it: 37°C, 6 h. As to the method:
as §1

The test system of data set [6] is plasma protein. More on the design: method as in earlier work. The conditions noted are these: cited from earlier work.
Data set [7] has as its system Cryptococcus neoformans. In words: Counting of Cryptococcus neoformans colonies in the brain tissue. Type of data set: in vivo. The conditions noted are these: cryptococcal meningitis mice; AMPB 3 mg/kg, POS 180 mg/kg, 14 days; p < 0.01 compared with model group.
Protocol: Except the control group, the mice in the other four groups were all injected with the lateral ventricular cryptococcus suspension at the dose of 1 × 10^8 CFU/mL, 5 μL for each mouse [19]. And the control group was injected with the same volume of normal saline. […] After 5 days, mice in each group were administered with the corresponding drugs mentioned above, continuously for 14 days. And the time and frequency of administration are described above. The mice were then anesthetized with ether for 24 h after the last administration. Next, the brain tissue was promptly removed for H&E staining and colonization detection of Cryptococcus neoformans. The brain tissue was homogenized with normal saline at a ratio of 1 : 1 (g : v). And then, 100 μL homogenate suspension was gradient diluted to concentrations of 1, 0.1, 0.01, and 0.001 g/mL. At each concentration, 10 μL of brain tissue suspension was uniformly applied to yeast extract peptone dextrose medium and cultured in a 30°C incubator for 48 h [22]. Then, the colony count of cryptococcus neoformans was performed.
Where [8] appears, read: 5 μM zosuquidar, 5 μM Ko143 or 1 mM elacridar + 2.16 μM AMPB.

SMILES strings stand for the structures.

With `COc1cc2c(cc1OC)CN(CCc1ccc(NC(=O)c3cccc4c(=O)c5cccc(OC)c5[nH]c34)cc1)CC2` [elacridar], in data set [1] (setting [8]), the “effect on AMPB uptake by BCECs” value is on record as “no significant effect”.
As to `COc1ccc2c3c([nH]c2c1)[C@H](CC(C)C)N1C(=O)[C@H](CCC(=O)OC(C)(C)C)NC(=O)[C@@H]1C3` [Ko143], in data set [2], the “AMPB brain tissue/plasma drug ratio” value is “no effect”, the “brain tissue concentration of AMPB” value is “no effect” and the “plasma drug concentration of AMPB” value is recorded as “no effect”. Moreover, the “effect on AMPB uptake by BCECs” value in data set [1] (setting [8]) was “no significant effect”.
With `CC[C@@H]([C@H](C)O)n1ncn(-c2ccc(N3CCN(c4ccc(OC[C@@H]5CO[C@@](Cn6cncn6)(c6ccc(F)cc6F)C5)cc4)CC3)cc2)c1=O` [POS, posaconazole], the “cortical pathological injuries (inflammatory cell infiltration, bleeding), H&E staining” value with Cryptococcus neoformans [3] is reported as “improve the above pathological injuries”. For the same compound, the “effect on plasma concentration of free AMPB (ultrafiltration)” value in the data set with plasma protein [4] (POS 4 μg/mL + AMPB 2.0 μg/mL in plasma) and in the data set on plasma protein [4] (POS 8 μg/mL + AMPB 2.0 μg/mL in plasma) was “potentially increase” each time. Besides, the “effect on plasma free AMPB (balanced dialysis)” value is on record as “prominently elevate” with plasma protein [5] (POS 4 μg/mL + AMPB 0.5 μg/mL in mouse plasma, p < 0.05 vs AMPB group) and “prominently elevate” with plasma protein [5] (POS 8 μg/mL + AMPB 0.5 μg/mL in mouse plasma, p < 0.01 vs AMPB group). Further, in the data set with plasma protein [6], the “plasma protein binding rate” value was 98%. For the same compound, the “number of cryptococcus neoformans in the brain (colony culture)” value in the data set with Cryptococcus neoformans [7] is given as “evidently inhibit”. Further, the “effect on AMPB uptake by BCECs” value in data set [1] (POS 2.85, 5.71 and 11.42 μM + 2.16 μM AMPB) is given as “no significant effect”.
As to `O[C@@H](COc1cccc2ncccc12)CN1CCN([C@@H]2c3ccccc3[C@@H]3[C@H](c4ccccc42)C3(F)F)CC1` [zosuquidar], in data set [1] (setting [8]), the “effect on AMPB uptake by BCECs” value is given as “no significant effect”.
`C[C@@H]1[C@H](O)[C@@H](C)/C=C/C=C/C=C/C=C/C=C/C=C/C=C/[C@H](O[C@@H]2O[C@H](C)[C@@H](O)[C@H](N)[C@@H]2O)C[C@@H]2O[C@](O)(C[C@@H](O)C[C@@H](O)[C@H](O)CC[C@@H](O)C[C@@H](O)CC(=O)O[C@H]1C)C[C@H](O)[C@H]2C(=O)O` [AMPB, amphotericin B]: the “plasma protein binding rate” value in the data set with plasma protein [6] was 90%.
